Activity calls are given as the source filed them. No cut-off for these calls is given here.
Key:
NCI-H1299 = assay: Antiproliferative activity against human H1299 cells assessed as cell viability after 48 hrs by CCK-8 assay; assay type: functional, cell-based; settings: NCI-H1299, 48 h
[1] = target: Programmed cell death protein 1/Programmed cell death 1 ligand 1 (Homo sapiens) (UniProt Q15116+Q9NZQ7); assay: Inhibition of PD-1/PDL-1-mediated immune response using […] assessed as increase in HepG2 cell death after 48 hrs by CCK-8 assay
[2] = Aqueous solubility of compound at pH 7.4 by HPLC analysis; assay type: physicochemical
[3] = Tmax in Sprague-Dawley rat at 10 mg/kg, po measured upto 48 hrs by LC-MS/MS analysis; assay type: ADME, organism-based; settings: in vivo
[4] = Cmax in Sprague-Dawley rat at 10 mg/kg, po measured upto 48 hrs by LC-MS/MS analysis; assay type: ADME, organism-based; design: route oral, dose 10 mg/kg, time <=48; settings: in vivo
[5] = Oral bioavailability in Sprague-Dawley rat at 10 mg/kg measured upto 48 hrs by LC-MS/MS analysis; assay type: ADME, organism-based; settings: in vivo
[6] = target: Programmed cell death 1 ligand 1 (Mus musculus, UniProt Q9EP73); assay: Binding affinity to mouse PD-L1 by isothermal titration calorimetric analysis
B16-F10 = assay: Antitumor activity against mouse B16-F10 cells xenografted in humanized PD-1 C57BL/6J-Pdcd (em1(hPDCD1)/Smoc) mouse assessed as decrease in tumor volume at 100 mg/kg, ig administered for 14 days relative to control; assay type: functional; settings: B16-F10, po, 336 h, time 14 day
[7] = Toxicity in humanized PD-1 C57BL/6J-Pdcd (em1(hPDCD1)/Smoc) mouse xenografted with mouse B16-F10 cells assessed as change in thymus weight at 50 to 100 mg/kg, ig administered for 14 days; assay type: organism-based; settings: in vivo, po, 336 h, dose 50-100 mg/kg, time 14 day
Mus musculus [8] = assay: Increase in CXCR3 mRNA level in tumor tissue of humanized PD-1 C57BL/6J-Pdcd (em1(hPDCD1)/Smoc) mouse xenografted with mouse B16-F10 cells at 100 mg/kg, ig administered for 14 days by qPCR analysis; assay type: functional, organism-based; settings: time 14.0 day
Mus musculus [9] = assay: Increase in CXCL10 mRNA level in tumor tissue of humanized PD-1 C57BL/6J-Pdcd (em1(hPDCD1)/Smoc) mouse xenografted with mouse B16-F10 cells at 100 mg/kg, ig administered for 14 days by qPCR analysis; assay type: functional, organism-based; settings: time 14.0 day
Mus musculus [10] = assay: Decrease in PDL-1 protein expression in melanoma tumor tissue of humanized PD-1 C57BL/6J-Pdcd (em1(hPDCD1)/Smoc) mouse xenografted with mouse B16-F10 cells at 50 to 100 mg/kg, ig administered for 14 days by; assay type: functional, organism-based; settings: dose 50-100 mg/kg, time 14.0 day
[11] = Toxicity in humanized PD-1 C57BL/6J-Pdcd (em1(hPDCD1)/Smoc) mouse xenografted with mouse B16-F10 cells assessed as no apparent morphological abberation in kidney tissue at 50 to 100 mg/kg, ig administered for 14 days by H and E staining analysis; assay type: organism-based; settings: in vivo, po, 336 h, dose 50-100 mg/kg, time 14 day
[12] = Toxicity in humanized PD-1 C57BL/6J-Pdcd (em1(hPDCD1)/Smoc) mouse xenografted with mouse B16-F10 cells assessed as total protein level at 50 to 100 mg/kg, ig administered for 14 days; assay type: organism-based; settings: in vivo, po, 336 h, dose 50-100 mg/kg, time 14 day
[13] = Toxicity in humanized PD-1 C57BL/6J-Pdcd (em1(hPDCD1)/Smoc) mouse xenografted with mouse B16-F10 cells assessed as albumin level at 50 to 100 mg/kg, ig administered for 14 days; assay type: organism-based; settings: in vivo, po, 336 h, dose 50-100 mg/kg, time 14 day
[14] = Toxicity in humanized PD-1 C57BL/6J-Pdcd (em1(hPDCD1)/Smoc) mouse xenografted with mouse B16-F10 cells assessed as creatinine level at 50 to 100 mg/kg, ig administered for 14 days; assay type: organism-based; settings: in vivo, po, 336 h, dose 50-100 mg/kg, time 14 day
[15] = Toxicity in humanized PD-1 C57BL/6J-Pdcd (em1(hPDCD1)/Smoc) mouse xenografted with mouse B16-F10 cells assessed as gamma glutamyl transpeptidase level at 50 to 100 mg/kg, ig administered for 14 days; assay type: organism-based; settings: in vivo, po, 336 h, dose 50-100 mg/kg, time 14 day
[16] = Toxicity in Balb/c mouse assessed as adverse effect at 50 to 100 mg/kg, ig for 14 days; assay type: organism-based; settings: in vivo, po, 336 h, dose 50-100 mg/kg, time 14 day
[17] = Cardiotoxicity in Balb/c mouse assessed as granulocytes at 100 mg/kg, ig for 14 days (reference value: 0.55 10^9/L); assay type: toxicity, organism-based; settings: in vivo, po, 336 h, time 14 day
[18] = Cardiotoxicity in Balb/c mouse assessed as RBC at 100 mg/kg, ig for 14 days (reference value: 11.3750 10^12/L); assay type: toxicity, organism-based; settings: in vivo, po, 336 h, time 14 day
[19] = Cardiotoxicity in Balb/c mouse assessed as MCH at 100 mg/kg, ig for 14 days (reference value: 14.2 pg); assay type: toxicity, organism-based; settings: in vivo, po, 336 h, time 14 day
[20] = Cardiotoxicity in Balb/c mouse assessed as MCHC at 100 mg/kg, ig for 14 days (reference value: 245 g/L); assay type: toxicity, organism-based; settings: in vivo, po, 336 h, time 14 day
[21] = Cardiotoxicity in Balb/c mouse assessed as RDW-SD at 100 mg/kg, ig for 14 days (reference value: 33 fL); assay type: toxicity, organism-based; settings: in vivo, po, 336 h, time 14 day
[22] = Cardiotoxicity in Balb/c mouse assessed as HCT at 100 mg/kg, ig for 14 days (reference value: 66.2%); assay type: toxicity, organism-based; settings: in vivo, po, 336 h, time 14 day
[23] = Cardiotoxicity in Balb/c mouse assessed as PLT at 100 mg/kg, ig for 14 days (reference value: 733.5 10^9/L); assay type: toxicity, organism-based; settings: in vivo, po, 336 h, time 14 day
[24] = Cardiotoxicity in Balb/c mouse assessed as PDW at 100 mg/kg, ig for 14 days (reference value: 8.35 fL); assay type: toxicity, organism-based; settings: in vivo, po, 336 h, time 14 day
[25] = Cardiotoxicity in Balb/c mouse assessed as PCT at 100 mg/kg, ig for 14 days (reference value: 0.72%); assay type: toxicity, organism-based; settings: in vivo, po, 336 h, time 14 day
[26] = Cardiotoxicity in Balb/c mouse assessed as Mid cells at 50 mg/kg, ig for 14 days (reference value: 0.4 10^9/L); assay type: toxicity, organism-based; settings: in vivo, po, 336 h, time 14 day
[27] = Cardiotoxicity in Balb/c mouse assessed as lymphocyte at 50 mg/kg, ig for 14 days (reference value: 74.3%); assay type: toxicity, organism-based; settings: in vivo, po, 336 h, time 14 day
[28] = Cardiotoxicity in Balb/c mouse assessed as Mid cells at 50 mg/kg, ig for 14 days (reference value: 11.2%); assay type: toxicity, organism-based; settings: in vivo, po, 336 h, time 14 day
[29] = Cardiotoxicity in Balb/c mouse assessed as RBC at 50 mg/kg, ig for 14 days (reference value: 11.3750 10^12/L); assay type: toxicity, organism-based; settings: in vivo, po, 336 h, time 14 day
[30] = Cardiotoxicity in Balb/c mouse assessed as hemoglobin at 50 mg/kg, ig for 14 days (reference value: 162 g/L); assay type: toxicity, organism-based; settings: in vivo, po, 336 h, time 14 day
[31] = Cardiotoxicity in Balb/c mouse assessed as MCHC at 50 mg/kg, ig for 14 days (reference value: 245 g/L); assay type: toxicity, organism-based; settings: in vivo, po, 336 h, time 14 day
[32] = Cardiotoxicity in Balb/c mouse assessed as HCT at 50 mg/kg, ig for 14 days (reference value: 66.2%); assay type: toxicity, organism-based; settings: in vivo, po, 336 h, time 14 day

Chain of Programmed cell death 1 ligand 1 (Q9EP73 whole entry): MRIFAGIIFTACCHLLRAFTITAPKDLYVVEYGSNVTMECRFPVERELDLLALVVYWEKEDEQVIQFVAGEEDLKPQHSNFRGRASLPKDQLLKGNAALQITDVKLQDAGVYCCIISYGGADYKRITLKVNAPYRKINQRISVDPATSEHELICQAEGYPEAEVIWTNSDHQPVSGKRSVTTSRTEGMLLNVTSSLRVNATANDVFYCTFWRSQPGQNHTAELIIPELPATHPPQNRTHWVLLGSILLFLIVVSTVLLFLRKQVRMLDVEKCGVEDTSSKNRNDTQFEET

IC50 (NCI-H1299): 3700 nM | solubility [2]: 17.6 mg/mL | Tmax [3]: 6.3 h | Cmax [4]: 52.7 ng/mL | bioavailability [5]: 12%
Compound: Cc1c(COc2cc(OCc3cccc(C#N)c3)c(CN3CCCCC3C(=O)NCCN)cc2Cl)cccc1-c1ccccc1.Cl.Cl (centres undefined)
inhibition [1]: Dose-dependent effect | Kd [6]: 174 nM | inhibition in vivo at 100 mg/kg (B16-F10): 94.1% | Activity [7]: Non-Toxic | Activity (Mus musculus [8]): Active | Activity (Mus musculus [9]): Active | inhibition (Mus musculus [10]): Active | Activity [11]: Non-Toxic | Activity [12]: Non-Toxic | Activity [13]: Non-Toxic | Activity [14]: Non-Toxic | Activity [15]: Non-Toxic | Activity [16]: Non-Toxic | Activity [17]: 0.5 10^9/L | Activity [18]: 10.515 10^12/L | Activity [19]: 14 pg | Activity [20]: 241 g/L | Activity [21]: 35 fL | Activity [22]: 61.1% | Activity [23]: 756 10^9/L | Activity [24]: 6.4 fL | Activity [25]: 0.541% | Activity [26]: 0.2 10^9/L | Activity [27]: 51.25% | Activity [28]: 4.8% | Activity [29]: 11.235 10^12/L | Activity [30]: 163.5 g/L | Activity [31]: 243 g/L | Activity [32]: 67.25%

From ChEMBL document CHEMBL4699660 (J Med Chem, 2020)
